{"source": "the supplement of paper PMC10307832", "experiment_in_all_cases": "relative viability (nuclei count vs DMSO), 5 days (fraction); higher = more cells survive", "key": {"OSI-027 + Decitabine": {"compound": "COc1cccc2cc(-c3nc([C@H]4CC[C@H](C(=O)O)CC4)n4ncnc(N)c34)[nH]c12 [OSI-027] + Nc1ncn([C@H]2C[C@H](O)[C@@H](CO)O2)c(=O)n1 [Decitabine] (partner 2 µM)", "outline": "(§1)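 One day after seeding in 1536-well plates, lung cancer cell lines were dosed by pin tool. Dosing was either single-drug or a fixed anchor-drug dose plus five library-drug doses (not always all listed) in √10 steps. After 5 days, nuclei were stained in one fix-and-stain step and counted on 4× images, and relative viability is the nuclei count of treated wells over that of vehicle wells, given as the median of duplicate plates.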"}, "Vemurafenib + Pemetrexed": {"compound": "CCCS(=O)(=O)Nc1ccc(F)c(C(=O)c2c[nH]c3ncc(-c4ccc(Cl)cc4)cc23)c1F [Vemurafenib] + Nc1nc2[nH]cc(CCc3ccc(C(=O)N[C@@H](CCC(=O)O)C(=O)O)cc3)c2c(=O)[nH]1 [Pemetrexed] (partner 0.2 µM)", "outline": "as §1"}, "Alpelisib + AZD7762": {"compound": "Cc1nc(NC(=O)N2CCC[C@H]2C(N)=O)sc1-c1ccnc(C(C)(C)C(F)(F)F)c1 [Alpelisib] + NC(=O)Nc1cc(-c2cccc(F)c2)sc1C(=O)N[C@H]1CCCNC1 [AZD7762] (partner 0.2 µM)", "outline": "as §1"}, "OSI-027 + Alpelisib": {"compound": "COc1cccc2cc(-c3nc([C@H]4CC[C@H](C(=O)O)CC4)n4ncnc(N)c34)[nH]c12 [OSI-027] + Cc1nc(NC(=O)N2CCC[C@H]2C(N)=O)sc1-c1ccnc(C(C)(C)C(F)(F)F)c1 [Alpelisib] (partner 2 µM)", "outline": "as §1"}}, "data": [{"cell line": "NCI-H522", "values": [{"measurement": "relative viability", "setting": "OSI-027 + Decitabine; first compound 0.01 µM", "result": 0.705}, {"measurement": "relative viability", "setting": "OSI-027 + Decitabine; first compound 0.03162 µM", "result": 0.724}, {"measurement": "relative viability", "setting": "OSI-027 + Decitabine; first compound 0.1 µM", "result": 0.626}, {"measurement": "relative viability", "setting": "OSI-027 + Decitabine; first compound 0.3162 µM", "result": 0.629}, {"measurement": "relative viability", "setting": "OSI-027 + Decitabine; first compound 1 µM", "result": 0.582}, {"measurement": "relative viability", "setting": "Vemurafenib + Pemetrexed; first compound 0.03162 µM", "result": 0.855}, {"measurement": "relative viability", "setting": "Vemurafenib + Pemetrexed; first compound 0.1 µM", "result": 0.98}, {"measurement": "relative viability", "setting": "Vemurafenib + Pemetrexed; first compound 0.3162 µM", "result": 0.867}, {"measurement": "relative viability", "setting": "Vemurafenib + Pemetrexed; first compound 1 µM", "result": 1.2}, {"measurement": "relative viability", "setting": "Alpelisib + AZD7762; first compound 0.04 µM", "result": 0.791}, {"measurement": "relative viability", "setting": "Alpelisib + AZD7762; first compound 0.1265 µM", "result": 0.987}, {"measurement": "relative viability", "setting": "Alpelisib + AZD7762; first compound 0.4 µM", "result": 0.729}, {"measurement": "relative viability", "setting": "Alpelisib + AZD7762; first compound 1.265 µM", "result": 0.702}, {"measurement": "relative viability", "setting": "Alpelisib + AZD7762; first compound 4 µM", "result": 0.678}]}, {"cell line": "NCI-H1437", "values": [{"measurement": "relative viability", "setting": "OSI-027 + Decitabine; first compound 0.01 µM", "result": 0.499}, {"measurement": "relative viability", "setting": "OSI-027 + Decitabine; first compound 0.03162 µM", "result": 0.614}, {"measurement": "relative viability", "setting": "OSI-027 + Decitabine; first compound 0.1 µM", "result": 0.63}, {"measurement": "relative viability", "setting": "OSI-027 + Decitabine; first compound 0.3162 µM", "result": 0.493}, {"measurement": "relative viability", "setting": "OSI-027 + Decitabine; first compound 1 µM", "result": 0.387}, {"measurement": "relative viability", "setting": "Vemurafenib + Pemetrexed; first compound 0.03162 µM", "result": 0.327}, {"measurement": "relative viability", "setting": "Vemurafenib + Pemetrexed; first compound 0.1 µM", "result": 0.294}, {"measurement": "relative viability", "setting": "Vemurafenib + Pemetrexed; first compound 0.3162 µM", "result": 0.312}, {"measurement": "relative viability", "setting": "Vemurafenib + Pemetrexed; first compound 1 µM", "result": 0.32}, {"measurement": "relative viability", "setting": "OSI-027 + Alpelisib; first compound 0.01 µM", "result": 1}, {"measurement": "relative viability", "setting": "OSI-027 + Alpelisib; first compound 0.03162 µM", "result": 0.676}, {"measurement": "relative viability", "setting": "OSI-027 + Alpelisib; first compound 0.1 µM", "result": 0.895}, {"measurement": "relative viability", "setting": "OSI-027 + Alpelisib; first compound 0.3162 µM", "result": 0.521}, {"measurement": "relative viability", "setting": "OSI-027 + Alpelisib; first compound 1 µM", "result": 0.272}, {"measurement": "relative viability", "setting": "Alpelisib + AZD7762; first compound 0.04 µM", "result": 1.12}, {"measurement": "relative viability", "setting": "Alpelisib + AZD7762; first compound 0.1265 µM", "result": 1.18}, {"measurement": "relative viability", "setting": "Alpelisib + AZD7762; first compound 0.4 µM", "result": 1.12}, {"measurement": "relative viability", "setting": "Alpelisib + AZD7762; first compound 1.265 µM", "result": 1.02}, {"measurement": "relative viability", "setting": "Alpelisib + AZD7762; first compound 4 µM", "result": 1.06}]}, {"cell line": "NCI-H1666", "values": [{"measurement": "relative viability", "setting": "OSI-027 + Decitabine; first compound 0.01 µM", "result": 0.719}, {"measurement": "relative viability", "setting": "OSI-027 + Decitabine; first compound 0.03162 µM", "result": 0.7}, {"measurement": "relative viability", "setting": "OSI-027 + Decitabine; first compound 0.1 µM", "result": 0.741}, {"measurement": "relative viability", "setting": "OSI-027 + Decitabine; first compound 0.3162 µM", "result": 0.624}, {"measurement": "relative viability", "setting": "OSI-027 + Decitabine; first compound 1 µM", "result": 0.555}, {"measurement": "relative viability", "setting": "Vemurafenib + Pemetrexed; first compound 0.03162 µM", "result": 0.805}, {"measurement": "relative viability", "setting": "Vemurafenib + Pemetrexed; first compound 0.1 µM", "result": 0.847}, {"measurement": "relative viability", "setting": "Vemurafenib + Pemetrexed; first compound 0.3162 µM", "result": 0.913}, {"measurement": "relative viability", "setting": "Vemurafenib + Pemetrexed; first compound 1 µM", "result": 0.843}, {"measurement": "relative viability", "setting": "OSI-027 + Alpelisib; first compound 0.01 µM", "result": 0.869}, {"measurement": "relative viability", "setting": "OSI-027 + Alpelisib; first compound 0.03162 µM", "result": 1.02}, {"measurement": "relative viability", "setting": "OSI-027 + Alpelisib; first compound 0.1 µM", "result": 0.658}, {"measurement": "relative viability", "setting": "OSI-027 + Alpelisib; first compound 0.3162 µM", "result": 0.43}, {"measurement": "relative viability", "setting": "OSI-027 + Alpelisib; first compound 1 µM", "result": 0.488}, {"measurement": "relative viability", "setting": "Alpelisib + AZD7762; first compound 0.04 µM", "result": 0.902}, {"measurement": "relative viability", "setting": "Alpelisib + AZD7762; first compound 0.1265 µM", "result": 0.762}, {"measurement": "relative viability", "setting": "Alpelisib + AZD7762; first compound 0.4 µM", "result": 1.03}, {"measurement": "relative viability", "setting": "Alpelisib + AZD7762; first compound 1.265 µM", "result": 0.865}, {"measurement": "relative viability", "setting": "Alpelisib + AZD7762; first compound 4 µM", "result": 0.711}]}, {"cell line": "NCI-H647", "values": [{"measurement": "relative viability", "setting": "OSI-027 + Decitabine; first compound 0.01 µM", "result": 0.385}, {"measurement": "relative viability", "setting": "OSI-027 + Decitabine; first compound 0.03162 µM", "result": 0.543}, {"measurement": "relative viability", "setting": "OSI-027 + Decitabine; first compound 0.1 µM", "result": 0.397}, {"measurement": "relative viability", "setting": "OSI-027 + Decitabine; first compound 0.3162 µM", "result": 0.248}, {"measurement": "relative viability", "setting": "OSI-027 + Decitabine; first compound 1 µM", "result": 0.211}, {"measurement": "relative viability", "setting": "Vemurafenib + Pemetrexed; first compound 0.03162 µM", "result": 0.164}, {"measurement": "relative viability", "setting": "Vemurafenib + Pemetrexed; first compound 0.1 µM", "result": 0.174}, {"measurement": "relative viability", "setting": "Vemurafenib + Pemetrexed; first compound 0.3162 µM", "result": 0.169}, {"measurement": "relative viability", "setting": "Vemurafenib + Pemetrexed; first compound 1 µM", "result": 0.198}, {"measurement": "relative viability", "setting": "OSI-027 + Alpelisib; first compound 0.01 µM", "result": 1.15}, {"measurement": "relative viability", "setting": "OSI-027 + Alpelisib; first compound 0.03162 µM", "result": 1.26}, {"measurement": "relative viability", "setting": "OSI-027 + Alpelisib; first compound 0.1 µM", "result": 0.914}, {"measurement": "relative viability", "setting": "OSI-027 + Alpelisib; first compound 0.3162 µM", "result": 0.699}, {"measurement": "relative viability", "setting": "OSI-027 + Alpelisib; first compound 1 µM", "result": 0.376}, {"measurement": "relative viability", "setting": "Alpelisib + AZD7762; first compound 0.04 µM", "result": 0.586}, {"measurement": "relative viability", "setting": "Alpelisib + AZD7762; first compound 0.1265 µM", "result": 0.322}, {"measurement": "relative viability", "setting": "Alpelisib + AZD7762; first compound 0.4 µM", "result": 0.688}, {"measurement": "relative viability", "setting": "Alpelisib + AZD7762; first compound 1.265 µM", "result": 0.393}, {"measurement": "relative viability", "setting": "Alpelisib + AZD7762; first compound 4 µM", "result": 0.325}]}, {"cell line": "NCI-H2342", "values": [{"measurement": "relative viability", "setting": "OSI-027 + Decitabine; first compound 0.01 µM", "result": 0.793}, {"measurement": "relative viability", "setting": "OSI-027 + Decitabine; first compound 0.03162 µM", "result": 0.687}, {"measurement": "relative viability", "setting": "OSI-027 + Decitabine; first compound 0.1 µM", "result": 0.68}, {"measurement": "relative viability", "setting": "OSI-027 + Decitabine; first compound 0.3162 µM", "result": 0.662}, {"measurement": "relative viability", "setting": "OSI-027 + Decitabine; first compound 1 µM", "result": 0.603}, {"measurement": "relative viability", "setting": "Vemurafenib + Pemetrexed; first compound 0.03162 µM", "result": 0.75}, {"measurement": "relative viability", "setting": "Vemurafenib + Pemetrexed; first compound 0.1 µM", "result": 0.834}, {"measurement": "relative viability", "setting": "Vemurafenib + Pemetrexed; first compound 0.3162 µM", "result": 0.684}, {"measurement": "relative viability", "setting": "Vemurafenib + Pemetrexed; first compound 1 µM", "result": 0.784}, {"measurement": "relative viability", "setting": "Alpelisib + AZD7762; first compound 0.04 µM", "result": 0.477}, {"measurement": "relative viability", "setting": "Alpelisib + AZD7762; first compound 0.1265 µM", "result": 0.421}, {"measurement": "relative viability", "setting": "Alpelisib + AZD7762; first compound 0.4 µM", "result": 0.506}, {"measurement": "relative viability", "setting": "Alpelisib + AZD7762; first compound 1.265 µM", "result": 0.497}, {"measurement": "relative viability", "setting": "Alpelisib + AZD7762; first compound 4 µM", "result": 0.426}]}]}
